Each structure is given as a SMILES string. The source made the active and inactive calls. No cut-off for these calls is given here.

Assay [1] concerns the target Trypanothione reductase (Leishmania amazonensis) (UniProt A5JV95). The assay can be described thus: Inhibition of trypanothione reductase in Leishmania amazonensis MHOM/BR/LTB0016 extracts assessed as NADPH consumption using trypanothione disulfide as substrate at 1 uM after 5 sec by spectrophotometer.
Assay [2] addresses Trypanothione reductase (Leishmania infantum) (UniProt A4HSF7). The assay can be described thus: Inhibition of trypanothione reductase in promastigotes of Leishmania infantum MHOM/MA67ITMAP263 extracts assessed as NADPH consumption using trypanothione disulfide as substrate at 1 uM after 5 sec by spectrophotometer.
A further assay concerns Leishmania braziliensis. The assay can be described thus: Inhibition of trypanothione reductase in promastigotes of Leishmania braziliensis MCAN/BR/98/R619 extracts assessed as NADPH consumption using trypanothione disulfide as substrate at 1 uM after 5 sec by spectrophotometer.
In assay [3] the target is Trypanothione reductase (Trypanosoma cruzi) (UniProt P28593). The assay can be described thus: Inhibition of trypanothione reductase epimastigotes of Trypanosoma cruzi Y extracts assessed as NADPH consumption using trypanothione disulfide as substrate at 1 uM after 5 sec by spectrophotometer.
For assay [4], the target named is Trypanothione reductase (Leishmania infantum) (UniProt A4HSF7). The assay can be described thus: Inhibition of recombinant Leishmania infantum MHOM/MA67ITMAP263 trypanothione reductase assessed as inhibition of NADPH consumption using trypanothione disulfide as substrate at 1 uM after 60 secs by spectrophotometer.
Assay [5] concerns the target Trypanothione reductase (Trypanosoma cruzi) (UniProt P28593). The assay can be described thus: Inhibition of recombinant Trypanosoma cruzi Y trypanothione reductase assessed as inhibition of NADPH consumption using trypanothione disulfide as substrate at 1 uM after 60 secs by spectrophotometer.

Sequence of Trypanothione reductase (Trypanosoma cruzi) (P28593 whole entry, looked up): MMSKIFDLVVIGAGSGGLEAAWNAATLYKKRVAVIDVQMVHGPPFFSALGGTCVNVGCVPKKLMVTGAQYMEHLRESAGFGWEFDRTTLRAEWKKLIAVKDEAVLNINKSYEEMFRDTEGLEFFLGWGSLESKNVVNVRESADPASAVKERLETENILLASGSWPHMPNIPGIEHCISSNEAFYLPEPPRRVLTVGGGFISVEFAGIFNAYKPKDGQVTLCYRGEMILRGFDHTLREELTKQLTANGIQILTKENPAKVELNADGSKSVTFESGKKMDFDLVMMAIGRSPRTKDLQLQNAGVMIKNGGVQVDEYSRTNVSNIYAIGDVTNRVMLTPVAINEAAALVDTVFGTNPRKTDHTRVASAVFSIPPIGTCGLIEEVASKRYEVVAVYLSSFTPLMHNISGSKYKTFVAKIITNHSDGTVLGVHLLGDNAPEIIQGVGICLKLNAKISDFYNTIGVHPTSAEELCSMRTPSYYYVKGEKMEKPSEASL
Sequence of Trypanothione reductase (Leishmania amazonensis) (A5JV95 as listed by the source): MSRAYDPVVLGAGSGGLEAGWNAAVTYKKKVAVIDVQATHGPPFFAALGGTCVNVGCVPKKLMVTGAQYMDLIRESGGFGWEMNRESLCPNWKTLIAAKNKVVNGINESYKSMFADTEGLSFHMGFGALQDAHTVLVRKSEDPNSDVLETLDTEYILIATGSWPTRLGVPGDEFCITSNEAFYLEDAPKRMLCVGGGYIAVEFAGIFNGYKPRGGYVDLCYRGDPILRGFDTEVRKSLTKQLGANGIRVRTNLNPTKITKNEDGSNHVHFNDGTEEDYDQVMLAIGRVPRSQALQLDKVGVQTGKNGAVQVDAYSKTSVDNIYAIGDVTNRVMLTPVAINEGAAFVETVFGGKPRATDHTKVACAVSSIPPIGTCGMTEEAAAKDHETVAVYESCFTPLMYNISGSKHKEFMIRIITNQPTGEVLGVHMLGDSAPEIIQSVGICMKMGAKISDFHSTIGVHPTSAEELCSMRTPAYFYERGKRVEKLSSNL
Sequence of Trypanothione reductase (Leishmania infantum) (A4HSF7 as listed by the source): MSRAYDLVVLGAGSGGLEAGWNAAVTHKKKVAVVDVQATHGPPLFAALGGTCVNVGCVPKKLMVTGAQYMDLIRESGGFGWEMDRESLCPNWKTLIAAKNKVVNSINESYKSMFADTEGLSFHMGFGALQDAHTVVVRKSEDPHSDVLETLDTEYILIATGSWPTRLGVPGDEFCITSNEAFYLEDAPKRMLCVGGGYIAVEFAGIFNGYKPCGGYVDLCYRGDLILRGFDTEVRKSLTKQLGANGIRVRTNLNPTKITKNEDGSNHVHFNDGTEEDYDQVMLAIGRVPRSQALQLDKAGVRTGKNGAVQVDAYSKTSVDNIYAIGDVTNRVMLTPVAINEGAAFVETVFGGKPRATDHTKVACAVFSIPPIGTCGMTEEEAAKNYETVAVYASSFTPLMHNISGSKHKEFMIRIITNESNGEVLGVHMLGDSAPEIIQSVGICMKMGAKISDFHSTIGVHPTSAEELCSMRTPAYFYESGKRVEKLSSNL

On to `COc1cccc(/C=C/c2sc(Nc3ccccc3)n[n+]2-c2ccccc2)c1`, for which the inhibition – broadly, the share of the control response that was lost under treatment – in assay [1] was “inactive”.
`COc1ccc(/C=C/c2sc(Nc3ccccc3)n[n+]2-c2ccccc2)cc1`: the inhibition result in assay [1] was “inactive”.
As to `O=[N+]([O-])c1ccc(/C=C/c2sc(Nc3ccccc3)n[n+]2-c2ccccc2)cc1`, the inhibition in assay [1] was 76%; in assay [2], 70%; in the assay on Leishmania braziliensis it was 69.5%; in assay [3], 83%; in assay [4], 76%; in assay [5], 69%.
For `C(=C\c1sc(Nc2ccccc2)n[n+]1-c1ccccc1)/c1ccccc1`, the inhibition result in assay [1], in assay [4] and in assay [5] was “inactive” each time.

For the origin of these results see ChEMBL document CHEMBL1944629, “Investigation of trypanothione reductase inhibitory activity by 1,3,4-thiadiazolium-2-aminide derivatives and molecular docking studies” (Bioorg Med Chem, 2012).
